The nature of data set [1]: in vitro spectrophotometric determination of solar protection parameters of standard formulations (Diffey and Robson). Particulars: standard formulation containing the compound at 3%. The text has this: Determining the UVA/UVB ratio is a parameter that is mostly independent from the SPF value that provides a clear indication of the protective power of the solar product against UVA rays. According to the Boots scale, when the value of such a ratio is comprised between 0.6 and 0.8 the product offers a high UVA protection, when the value is greater than 0.8 the UVA protection is considered to be its maximum.
The critical λ is an important instrumental parameter for evaluating the protective power of the solar product against UVA rays: when the critical λ is greater than 370 nm the product offers protection over a wide spectrum.
Determining the solar protection parameters was carried out through in vitro tests that foresee the use of spectrophotometric techniques, according to the international protocol Diffey and Robson (B. L. Diffey, J. Robson, J. Soc. Cosm. Chem., 1989, 40: 127-133).
As well as 2-phenyl-1H-benzimidazole-5-sulfonic acid, as reference product with which to compare the data a commercial filter (Neo Heliopan® AP) was also used, known to be a water-soluble exclusively UVA filter with critical λ greater than 370 nm. The results of some standard formulations containing a compound according to the present invention are given as an example in table 3.
(§1) Standard Formulation 3% Prepared at pH 7.2-7.6

Data set [2] is described as follows: PCL analysis of anti-oxidant activity of standard formulations. The format is biochemical. To be noted: standard formulation containing the compound at 3%.
From the text: (§2) In particular, the DPPH test, based on the measurement of the reducing activity of anti-oxidant molecules against the radical DPPH (2,2-diphenyl-1-picrylhydrazyl), the FRAP (Ferric Reducing/Antioxidant Power) test, which measures the ability of an anti-oxidant to reduce the Fe^3+ ions to Fe^2+ ions in acid conditions and in the presence of TPTZ (2,4,6-tripyridyl-triazine) and PCL (Photochemiluminescence) analysis, which allows measurement of the inhibition by the anti-oxidants of photo-induced auto-oxidation of the luminol promoted by the superoxide anion, were used.
We then proceeded to measure the anti-oxidant activity through PCL analysis of the standard formulations containing a compound according to the present invention at the concentration of 3%. Such an anti-oxidant activity was measured in order to compare it with the reference molecules.
as §1

For data set [3] the following is noted: known property of the commercial filter; cited from earlier work.
The nature of data set [4]: DPPH test: reducing activity of anti-oxidant molecules against the radical DPPH. The format is biochemical. Particulars: Trolox equivalents. As to the method:
(§3) The compound object of the present invention was tested through different in vitro tests that complement one another, in order to evaluate its ability to counteract different radical species.
as §2
(§4) In table 1, in which the values are expressed in μmol Trolox/mmol compound, some examples are given.

The nature of data set [5]: FRAP (Ferric Reducing/Antioxidant Power) test. The format is biochemical. Particulars: anti-oxidant activity, Trolox equivalents; acid conditions, TPTZ. As to the method: as §3, §2, §4
The nature of data set [6]: PCL (Photochemiluminescence) analysis of the compounds. The format is biochemical. Particulars: anti-oxidant activity, Trolox equivalents; photo-induced auto-oxidation of luminol. As for the experimental part:
as §3, §2, §4

The nature of data set [7]: maximum wavelength absorbable (λ max), UV absorption. The format is physicochemical. Particulars: for λ max: pH between 7.4 and 8 in a phosphate buffer. As to the method:
Moreover, the compound object of the present invention recorded a significant increase in the maximum wavelength absorbable (λ max) with respect to 2-phenyl-1H-benzimidazole-5-sulfonic acid, which has been taken as reference.
Some examples are given in table 2, in which the λ max were measured at pH comprised between 7.4 and 8 in a phosphate buffer.
In 5 ml of ethanol 100 mg of 3,4-diamine-benzenesulfonic acid sulfate salt (0.35 mmol), 48 mg of 3,4 dihydroxybenzaldehyde (0.35 mmol) and 0.7 ml of sodium bisulfite solution 1N (0.7 mmol) were mixed. The reaction mixture was placed at 80° C. for 24 hours. After having evaporated the solvents, the raw product was treated with 5 ml of solution 5M of HCl. The precipitate was then filtered and the product recrystallized from methanol.

Consider eight molecules from patent publication US20140363386A1, “DUALISTIC MOLECULES HAVING UV RADIATION FILTRATING ABILITY AT WIDE SPECTRUM AND POTENT DAMPING ACTIVITY OF THE REACTIVITY OF FREE RADICALS (RADICAL SCAVENGING)” (UNIVERSITA DEGLI STUDI FERRARA, priority 2012, published 2014).

Some results are limits rather than exact numbers.

On to `O=S(=O)([O-])c1cc(S(=O)(=O)O)cc2[nH]c(-c3ccc(-c4nc5c(S(=O)(=O)[O-])cc(S(=O)(=O)O)cc5[nH]4)cc3)nc12.[Na+].[Na+]` [Neo Heliopan ® AP, reference compound], for which, in data set [1], the SPF amounted to 4.59 ± 0.37; the “UVA/UVB (ratio between UVA absorbance and UVB absorbance)” value is 2.46 ± 0.12; the λ critical stood at 371 nm. The “anti-oxidant activity through PCL analysis” value in data set [2] is 0 μmol Trolox/g cosmetic formulation. Also, the “critical λ” value in data set [3] is reported as “greater than 370 nm”.

Take `Oc1ccc(-c2nc3ccccc3[nH]2)cc1O` [2-(3,4-Dihydroxy-phenyl)-1H-benzimidazole]: in data set [4], the DPPH was found to be 1975 ± 15 μmol Trolox/mmol compound. Further, in data set [5], the FRAP is reported as 2523 ± 29 μmol Trolox/mmol compound. The PCL in data set [6] turned out to be 27442 ± 329 μmol Trolox/mmol compound. In addition, the λ max in data set [7] was 311 nm. Moreover, in data set [1], the SPF came to 7.07 ± 1.36; the “UVA/UVB (ratio between UVA absorbance and UVB absorbance)” value is 0.93 ± 0.02; the λ critical was 367.5 nm. For the same molecule, the “anti-oxidant activity through PCL analysis” value in data set [2] is reported as 760 ± 5 μmol Trolox/g cosmetic formulation.

With `O=S(=O)(O)c1ccc2[nH]c(-c3ccc(O)c(O)c3)nc2c1` [2-(3,4-dihydroxy-phenyl)-1H-benzoimidazole-5-sulfonic acid], in data set [4], the DPPH was found to be 2145 ± 40 μmol Trolox/mmol compound. Besides, the FRAP in data set [5] was 2313 ± 26 μmol Trolox/mmol compound. For the same molecule, the PCL in data set [6] worked out at 27855 ± 764 μmol Trolox/mmol compound. Moreover, in data set [7], the λ max was determined as 313.5 nm. For the same molecule, the “maximum absorption in the UV region” value in data set [7] (product of Example 1, medium not stated) is reported as 313 nm. Further, in data set [1], the SPF is listed as 13.36 ± 2.20; the “UVA/UVB (ratio between UVA absorbance and UVB absorbance)” value was determined as 0.88 ± 0.04; the λ critical worked out at 358.5 nm. The “anti-oxidant activity through PCL analysis” value in data set [2] was 725 ± 3 μmol Trolox/g cosmetic formulation.

For the molecule `O=C(O)c1ccc2[nH]c(-c3ccc(O)cc3)nc2c1` [2-(4-Hydroxy-phenyl)-1H-benzoimidazole-5-carboxylic acid], the DPPH in data set [4] was 1.19 ± 0.02 μmol Trolox/mmol compound. For the same molecule, the FRAP in data set [5] turned out to be 2.62 ± 0.06 μmol Trolox/mmol compound. Moreover, the PCL in data set [6] stood at 7 ± 0.3 μmol Trolox/mmol compound. The molecule also gave a λ max in data set [7] of 312.5 nm. Also, in data set [1], the SPF is 8.42 ± 1.55; the “UVA/UVB (ratio between UVA absorbance and UVB absorbance)” value amounted to 0.89 ± 0.05; the λ critical came to 350 nm. Besides, the “anti-oxidant activity through PCL analysis” value in data set [2] is listed as 0.16 ± 0.02 μmol Trolox/g cosmetic formulation.

For the molecule `O=C(O)c1ccc2[nH]c(-c3ccc(O)c(O)c3)nc2c1` [2-(3,4-Dihydroxy-phenyl)-1H-benzoimidazole-5-carboxylic acid], in data set [4], the DPPH came to 1772 ± 75 μmol Trolox/mmol compound. The FRAP in data set [5] is listed as 1803 ± 22 μmol Trolox/mmol compound. In data set [6], the PCL was 22014 ± 360 μmol Trolox/mmol compound. Further, the λ max in data set [7] worked out at 317 nm. Moreover, in data set [1], the SPF came out at 9.82 ± 1.30; the “UVA/UVB (ratio between UVA absorbance and UVB absorbance)” value was found to be 1.21 ± 0.04; the λ critical was 369.5 nm. The “anti-oxidant activity through PCL analysis” value in data set [2] is 383 ± 18 μmol Trolox/g cosmetic formulation.

Consider `O=S(=O)(O)c1ccc2[nH]c(-c3ccccc3)nc2c1` [2-phenyl-1H-benzimidazole-5-sulfonic acid, reference compound], for which, in data set [4], the DPPH is 4.40 ± 0.03 μmol Trolox/mmol compound. Besides, in data set [5], the FRAP was 0.79 ± 0.05 μmol Trolox/mmol compound. Moreover, in data set [6], the PCL is below 0 μmol Trolox/mmol compound. For the same molecule, the λ max in data set [7] worked out at 302.5 nm. Moreover, in data set [1], the SPF stood at 6.33 ± 1.24; the “UVA/UVB (ratio between UVA absorbance and UVB absorbance)” value worked out at 0.31 ± 0.06; the λ critical worked out at 333 nm. Also, the “anti-oxidant activity through PCL analysis” value in data set [2] is given as 0 μmol Trolox/g cosmetic formulation.

In the case of `Oc1ccc(-c2nc3ccccc3[nH]2)c(O)c1` [2-(2,4-Dihydroxy-phenyl)-1H-benzimidazole], in data set [4], the DPPH was 16.5 ± 0.5 μmol Trolox/mmol compound. For the same molecule, the FRAP in data set [5] worked out at 37.3 ± 0.3 μmol Trolox/mmol compound. Besides, the PCL in data set [6] is reported as 198 ± 3 μmol Trolox/mmol compound. Moreover, the λ max in data set [7] stood at 315.5 nm. Besides, in data set [1], the SPF came out at 4.85 ± 0.71; the “UVA/UVB (ratio between UVA absorbance and UVB absorbance)” value was 1.31 ± 0.04; the λ critical is given as 379.5 nm. Moreover, in data set [2], the “anti-oxidant activity through PCL analysis” value is 8.66 ± 0.04 μmol Trolox/g cosmetic formulation.

Regarding `O=C(O)c1ccc2[nH]c(-c3ccc(O)cc3O)nc2c1` [2-(2,4-Dihydroxy-phenyl)-1H-benzoimidazole-5-carboxylic acid], the DPPH in data set [4] is reported as 32.2 ± 2.1 μmol Trolox/mmol compound. In addition, in data set [5], the FRAP came out at 31.6 ± 1.7 μmol Trolox/mmol compound. Moreover, the PCL in data set [6] was found to be 160 ± 4 μmol Trolox/mmol compound. Also, in data set [7], the λ max was found to be 321.5 nm. In data set [1], the SPF was determined as 4.70 ± 0.62; the “UVA/UVB (ratio between UVA absorbance and UVB absorbance)” value is 1.48 ± 0.03; the λ critical is 369.5 nm. In addition, the “anti-oxidant activity through PCL analysis” value in data set [2] is recorded as 4.97 ± 0.17 μmol Trolox/g cosmetic formulation.
